For test [1], the target named is T1, histamine H3 receptor (Rattus norvegicus, UniProt Q9QYN8).
T1 construct: synthesized from [^3 H]histidine by synaptosomes of rat cerebral cortex; from tissue; host or cells: rat cerebral cortex synaptosomes
Put plainly: H3 agonist effect: inhibition of [3H]histamine release from synaptosomes of rat cerebral cortex. In kind it is biochemical. Particulars: for Emax: maximum inhibition relative to that of exogenous histamine or (R)-alpha-methylhistamine, read-out: Intrinsic activity; for EC50: rat cerebral cortex synaptosomes, inhibition of [3H]histamine release, read-out: EC50 (50% effective concentration of partial agonists). The procedure:
The partial agonist effect of the compounds is evaluated by comparison of the maximum inhibition which they induce relative to the maximum inhibition induced by exogenous histamine or [R]-α-methylhistamine; the ratio of these two values giving the intrinsic activity of the compound with respect to the system.

Test [2] has as its system cerebral tele-methylhistamine. Put plainly: agonist effect in vivo: change in the level of cerebral tele-methylhistamine in mice. Particulars: for Change in the level of cerebral tele-methylhistamine (relative to controls): H3 partial agonists, mice, 10 mg/kg p.o., 90 min. The procedure: The effect of a partial agonist in vivo is characterized by the fact that the maximum reduction in the level of tele-methylhistamine which it induces at high dose is smaller than the reduction induced by a reference H3 agonist.
These various compounds were administered at a dose of 10 mg/kg p.o. and the mice sacrificed 90 min later.

The target in test [3] is T1, histamine H3 receptor. The test can be described thus: H3 antagonist power: reversal of (R)-alpha-methylhistamine-induced inhibition of [3H]histamine release from synaptosomes of rat cerebral cortex. Particulars: read-out: Ki (apparent dissociation constant as histamine antagonist at the H3 receptors). It is filed as biochemical.
In test [4] the test system is cerebral tele-methylhistamine. Put plainly: antagonist effect in vivo: change in the level of cerebral tele-methylhistamine in mice. Particulars: Mus musculus, po, 1.5 h, read-out: Change in the level of cerebral tele-methylhistamine (relative to controls). The procedure: Results are collated in Tables II and III below:
These various compounds were administered at a dose of 10 mg/kg p.o., and the mice sacrificed 90 min later.

The subject of the next test is plasma extravasation. Put plainly: plasma extravasation induced in rats under the influence of capsaicin (tissue level of Evans blue). In kind it is in vivo. Particulars: capsaicin 90 μg/kg i.v. The text has this: In contrast, we have discovered that measurement of the activity of the cerebral histaminic neurons in vivo, reflected by the level of tele-methylhistamine, a characteristic metabolite of released histamine, constitutes a more sensitive test of agonist activity. In effect, compounds displaying an intrinsic activity ≤25% in vitro cause, in vivo, a maximum or virtually maximum fall in the level of the tele-methylhistamine. Another sensitive test of H3 agonist activity, in this instance in relation to peripheral organs, consists in measuring the plasma extravasation induced in rats under the influence of capsaicin (90 μg/kg i.v.) and determined by measuring the tissue level of Evans blue, a dye administered at the same time as capsaicin, namely 5 min before infusion and sacrifice (Saria et al., Naunyn-Schmiedeberg's Arch. Pharmacol. 1983, 324: 212).

The mark [5] stands for this setting: H3 antagonists, mice, 10 mg/kg p.o., 90 min.

The structures appear in SMILES notation. Where a name gives a salt, the structure may show the parent alone. Read-outs that look alike come from different tables or passages of the source.

T1 sequence (Q9QYN8 whole entry): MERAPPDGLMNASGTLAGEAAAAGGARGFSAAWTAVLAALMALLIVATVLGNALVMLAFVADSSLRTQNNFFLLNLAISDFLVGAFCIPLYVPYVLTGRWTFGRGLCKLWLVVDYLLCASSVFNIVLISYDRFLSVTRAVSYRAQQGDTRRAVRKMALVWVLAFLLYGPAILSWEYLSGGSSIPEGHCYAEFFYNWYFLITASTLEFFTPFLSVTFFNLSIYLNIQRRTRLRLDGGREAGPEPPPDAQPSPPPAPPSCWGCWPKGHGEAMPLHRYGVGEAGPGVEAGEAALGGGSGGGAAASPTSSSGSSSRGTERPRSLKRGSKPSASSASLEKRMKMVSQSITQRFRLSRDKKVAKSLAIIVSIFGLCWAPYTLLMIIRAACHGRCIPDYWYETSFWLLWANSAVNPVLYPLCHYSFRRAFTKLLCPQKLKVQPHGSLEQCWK

Take `CC(C)CCOCCCc1c[nH]cn1` [Example 5, 3-(1H-Imidazol-4-yl)propyl 3-methylbutyl ether]: on histamine H3 receptor [1] (in vitro), the Emax worked out at 20%. Further, the EC50 at histamine H3 receptor [1] was 130 nM. In test [2], the “Change in the level of cerebral tele-methylhistamine (relative to controls)” value (“Change in the level … (relative to controls)” for short) is reported as -52%. Regarding `CCC(C)(C)NC(=O)OCCCc1c[nH]cn1` [Example 110, 3-(1H-Imidazol-4-yl)propyl N-(2-methyl-2-butyl)carbamate], the “functional class at the histamine H3 receptors (agonists)” value on histamine H3 receptor [1] (in words) was “agonists or partial agonists”. For `c1ccc2cc(COCCCc3c[nH]cn3)ccc2c1` [Example 56, 3-(1H-Imidazol-4-yl)propyl 2-naphthylmethyl ether], on histamine H3 receptor [3], the Ki was found to be 22 nM. For `C=CCNC(=O)OCCCc1c[nH]cn1` [Example 112, 3-(1H-Imidazol-4-yl)propyl-N-(2-propenyl) carbamate], in test [4] (setting [5]), the change in vivo at 10 mg/kg was determined as 98%.

With `CCCCCCCOCCCc1c[nH]cn1` [Example 64, 3-(1H-Imidazol-4-yl)propyl heptyl ether], the Ki on histamine H3 receptor [3] amounted to 16 nM. For the molecule `CSc1ccc(OCCCc2c[nH]cn2)cc1` [Example 166, 4-[3-(4-Thiomethylphenoxy)propyl]-1H-imidazole oxalate], on histamine H3 receptor [3], the Ki came out at 3 nM. As for `CCCCCNC(=O)OCCCc1c[nH]cn1` [Example 30, 3-(1H-Imidazol-4-yl)propyl-N-pentyl carbamate], in test [4] (setting [5]), the change in vivo at 10 mg/kg came out at 67%.

`c1nc(CCCOc2ccc3c(c2)CCCC3)c[nH]1` [Example 21, 4-[3-(1,2,3,4-Tetrahydro-6-naphthyloxy)propyl]-1H-imidazole]: the Ki on histamine H3 receptor [3] stood at 45 nM. In addition, the change in vivo at 10 mg/kg in test [4] (setting [5]) stood at 79%. As to `Cc1cc(C)cc(NC(=O)OCCCc2c[nH]cn2)c1` [Example 115, N-(3,5-Dimethylphenyl)-3-(1H-imidazol-4-yl)propyl carbamate], at histamine H3 receptor [3], the Ki came out at 44 nM. As for `O=C(c1ccc(OCCCc2c[nH]cn2)cc1)C1CC1` [Example 81, Cyclopropyl 4-(3-(1H-imidazol-4-yl)propyloxy)phenyl ketone], the change in vivo at 10 mg/kg in test [4] was 72%.

For the molecule `c1nc(CCCOCCC2CC3CCC2C3)c[nH]1` (centres unmarked) [Example 61, 2-(Bicyclo[2.2.1]hept-2-yl)ethyl 3-(1H-imidazol-4-yl)propyl ether], the Ki at histamine H3 receptor [3] amounted to 0.5 nM. For the molecule `Cc1nc(-c2ccc(OCCCc3c[nH]cn3)cc2)no1` [Example 149, 3-(1H-Imidazol-4-yl)propyl 4-(5-methyl-1,2,4-oxadiazol-3-yl)phenyl ether], the Ki at histamine H3 receptor [3] was determined as 44 nM. As to `FC(F)(F)c1cccc(OCCCc2c[nH]cn2)c1` [Example 8, 4-[3-(3-Trifluoramethylphenoxy)propyl]-1H-imidazole], the Emax at histamine H3 receptor [1] (in vitro) came out at 40%. Moreover, the EC50 at histamine H3 receptor [1] came to 100 nM. Further, the “Change in the level … (relative to controls)” value in test [2] is recorded as -41%. As to `CC(=O)c1ccc(OCCCc2c[nH]cn2)cc1` [Example 78, (4-(3-(1H-Imidazol-4-yl)propyloxy)phenyl)ethanone], the change in vivo at 10 mg/kg in test [4] (setting [5]) was determined as 68%. On to `CC(C)(C)CNC(=O)OCCCc1c[nH]cn1` [Example 111, N-(2,2-Dimethylpropyl)-3-(1H-imidazol-4-yl)propyl carbamate], for which the “functional class at the histamine H3 receptors (agonists)” value at histamine H3 receptor [1] (in words) was “agonists or partial agonists”. For the same molecule, the “Change in the level … (relative to controls)” value in test [2] was -34%. Turning to `CON=C(C)c1ccc(OCCCc2c[nH]cn2)cc1` [Example 93, (4-(3-(1H-Imidazol-4-yl)propyloxy)phenyl)ethanone O-methyloxime], on histamine H3 receptor [3], the Ki is 25 nM. As to `O=C(NC(c1ccccc1)c1ccccc1)OCCCc1c[nH]cn1` [Example 2, 3-(1H-Imidazol-4-yl)propyl-N-(diphenylmethyl) carbamate], in the test with plasma extravasation, the “response in the capsaicin-induced plasma extravasation test compared with (R)-α-methylhistamine” value is “a response akin to that of (R)-α-methylhistamine”. Moreover, the “behaviour in vitro at the H3 receptor” value on histamine H3 receptor [1] (in vitro, in words) is “behaves essentially as an antagonist”. The Emax at histamine H3 receptor [1] (in vitro) was ~20%. Moreover, the EC50 on histamine H3 receptor [1] came out at 100 nM. Further, in test [2], the “Change in the level … (relative to controls)” value is reported as -30%. In addition, the “response in the tele-methylhistamine test compared with (R)-α-methylhistamine” value in test [2] (in vivo, in words) is given as “a response akin to that of (R)-α-methylhistamine”.

Regarding `CC(=O)c1cccc(SCCc2c[nH]cn2)c1.O=C(O)C(=O)O` [Example 157, 4-[2-(3-Ethanoylphenylthio)ethyl]-1H-imidazole oxalate], the “Change in the level … (relative to controls)” value in test [2] was -38%. Consider `CCCN(CCC)C(=O)OCCCc1c[nH]cn1` [Example 39, 3-(1H-Imidazol-4-yl)propyl-N,N-dipropyl carbamate], for which, in test [4] (setting [5]), the change in vivo at 10 mg/kg stood at 84%.

As to `Cc1ccc(OCCc2c[nH]cn2)cc1` [Example 160, 4-[2-(4-Methylphenoxy)ethyl]-1H-imidazole oxalate], the change in vivo at 10 mg/kg in test [4] (setting [5]) was found to be 95%. `CCCC(=NO)c1ccc(OCCCc2c[nH]cn2)cc1` [Example 140, (4-(3-(1H-Imidazol-4-yl)propyloxy)phenyl)butanone oxime]: the change in vivo at 10 mg/kg in test [4] (setting [5]) came out at 84%.

(Values after patent US6248765A, “Imidazole derivatives as histamine receptor H3 (ANT) agonists” (priority 1995, dated 2001).)
